Data reported in patent US20220118117A1, “MODULATORS OF METABOTROPIC GLUTAMATE RECEPTOR 4” (The General Hospital Corporation, priority 2019, published 2022).
Several values for one entry are separate records, joined by “and”; a condition that tells them apart may be missing. Equal values may be shown once.

Key:
plasma stability = format: in vitro ADME; conditions: rat plasma; for Plasma stability, remaining of the intact test compound: 37° C.
Procedure: Briefly, each tube is added 882 μL of 1:1 diluted rat plasma with phosphate buffer (pH 7.4). 18 μL (100 μM) of DMSO stock solution of the test compound (4, 13 and 15) or positive control compound (Diltiazem) was added to make a final compound concentration 2 μM in the plasma solution and final DMSO content 2%. The mixture was incubated at 37° C. After the incubation at 0, 15, 30, 60, and 120 min time points, aliquots of 50 μL samples were quenched with 100 μL of ice-cold acetonitrile with 25 μM of the internal reference (for HPLC analysis), respectively. The quenched samples were centrifuged at 10,000×g, and the supernatant was analyzed by HPLC. The percentage of remaining intact test compound was calculated by (peak area at the specific time point)/(peak area at 0 min)×100. Every sample was assayed three times.

microsomal stability = format: in vitro ADME, Sprague-Dawley rat; conditions: rat liver microsomes, NADPH
Procedure: First, Sprague-Dawley rat liver microsomes (0.5 mg/mL, Sigma-Aldrich, No. M9066) was incubated with PBS (50 mM, pH=7.4) in a reaction tube at 37° C. for 3 min. To the reaction tube were added the test compound (2 μM) and then cofactor, NADPH (1 mM), to start the reaction. The mixture was shaken in a water bath at 37° C. At different time points (0, 5, 10, 15, 30 min), aliquots (50 μL) were removed and added to 100 μl of cold acetonitrile with internal standard (25 μM) to quench the reaction. The precipitated material was by centrifugation (10,000×g, 10 min, 4° C.), and the supernatant was analyzed by RP-HPLC (Column: Phenomenex Luna© 5 μm, Cis, 100 Å, 250×4.6 mm). The RP-HPLC was carried out by using a 15-min gradient method: eluent A: 0.1% formic acid/H2O; eluent B: 0.1% formic acid/CH3CN; gradient: […]; 5% B to 95% B from 1 to 9 min, 95% B from 9 to 12 min, 95% to 5% B from 12 to 13 min, 5% B from 13 to 15 min; flow rate at 0.7 mL/min.
The in peak area ratio (test compound peak area at a time point/peak area at 0 min time point) was plotted against time and the gradient of the line was determined. Subsequently, the half-life (t1/2) was calculated as 0.693/k, where the elimination rate constant k equals to −gradient. V (μL/mg) was obtained as a ratio of volume of incubation […]/protein in the incubation (mg). Finally, the intrinsic clearance (CLint) (μL/min/mg protein) was calculated as V*0.693/t1/2.

solution stability = format: physicochemical
Procedure: Three pH values, 5, 7.4 and 9.4 were selected to check the solution stability. Aqueous solutions with different pH values were established using the following buffers: sodium acetate-KCl—HCl buffer (20 mM, pH 5.0), phosphate buffer (20 mM, pH 7.4), and boric acid-KCl—NaOH buffer (20 mM, pH 9.4). 891 μL of each pH buffer was placed in different tubes. 9 μL (1 mM) of the sample stock (4, 13, 15 and Diltiazem) was transferred to a particular buffer tube and mixed just before the time 0 min. The mixture was vortexed and incubated at 37° C. After the incubation at the different time points (0, 15, 30, 60, and 120 min), aliquots of 50 μL samples were quenched with 100 μL of ice-cold acetonitrile with 25 μM internal reference, respectively, and analyzed by HPLC. The percentage of the remaining intact compound was calculated by (peak area at the specific time point)/(peak area at 0 min)×100. Every sample was assayed three times.

mGluR4 [1] = molecular target: T1, mGluR4 (Homo sapiens, UniProt Q14833); assay: competitive binding (radioligand replacement) assay with [3H]4 in mGluR4 transfected CHO cells; parameters: expressed in transfected cells; host or cells: CHO cells; conditions: 2 nM [3H]4, read-out: IC50 (nM), affinity to mGluR4
T1 sequence (Q14833 33-912): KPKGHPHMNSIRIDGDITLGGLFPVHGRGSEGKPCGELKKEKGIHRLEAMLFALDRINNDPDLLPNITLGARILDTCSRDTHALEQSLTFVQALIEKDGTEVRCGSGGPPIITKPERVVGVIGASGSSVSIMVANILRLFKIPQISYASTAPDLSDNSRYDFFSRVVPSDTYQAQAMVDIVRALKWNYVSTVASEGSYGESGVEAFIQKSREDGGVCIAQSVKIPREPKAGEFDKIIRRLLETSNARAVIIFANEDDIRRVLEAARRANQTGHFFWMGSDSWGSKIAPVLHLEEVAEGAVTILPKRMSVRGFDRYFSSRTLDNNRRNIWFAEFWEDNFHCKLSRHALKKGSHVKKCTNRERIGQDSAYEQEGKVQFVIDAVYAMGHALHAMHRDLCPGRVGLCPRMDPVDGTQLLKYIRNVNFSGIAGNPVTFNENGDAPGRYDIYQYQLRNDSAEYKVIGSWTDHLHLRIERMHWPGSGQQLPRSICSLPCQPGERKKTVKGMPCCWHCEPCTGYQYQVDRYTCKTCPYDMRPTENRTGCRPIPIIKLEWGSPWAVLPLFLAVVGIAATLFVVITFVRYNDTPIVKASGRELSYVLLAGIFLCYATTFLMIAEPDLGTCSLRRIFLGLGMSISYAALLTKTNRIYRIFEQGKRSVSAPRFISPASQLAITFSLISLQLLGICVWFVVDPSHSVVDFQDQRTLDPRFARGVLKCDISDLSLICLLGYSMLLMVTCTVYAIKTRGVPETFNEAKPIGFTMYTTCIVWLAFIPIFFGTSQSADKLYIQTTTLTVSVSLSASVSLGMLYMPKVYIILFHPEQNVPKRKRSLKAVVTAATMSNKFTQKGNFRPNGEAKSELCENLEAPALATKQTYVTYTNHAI
Procedure: In Vitro mGluR4 Binding Assay. CHO cells expressing mGluR4 were used for all binding assay protocols. For competitive binding, 2 nM of [^3H]4 was used together with increased concentrations of test compounds ranging from 0.01 nM to 10 μM. Each test tube contained 50 000 freshly harvested CHO cells expressing mGluR4 cultured in HAMs cell culture medium with 100 nM of glutamate, penicillin-streptomycin (100 units), and 1 mM G418. [3H]4 (2 nM) was added to the cell extract with and without test compounds on ice and then incubated for 30 min at room temperature. Samples were centrifuged at 1200 rpm for 10 min at 4° C. and washed three times with a cold cell culture medium as a washing buffer. Samples were lysed by adding 100 μL of 0.5% NaOH and heated using a heating block (56° C., 30 min). Samples were cooled with an ice bath and transferred to Solvent-Saver scintillation vials (VWR International LLC.). To obtain binding parameters, the scintillation liquid (PerkinElmer, Optima Gold) was added prior to counting with a scintillation counter (Packard TriCarb Model, 1 min/vial). Nonspecific binding was determined using 10 μM of nonradioactive test compound, and specific binding was determined by extracting the nonspecific binding from total binding. All measurements were done in triplicate and analyzed with GraphPad Prism software (GraphPad Software Inc.).

mGluR4 [2] = molecular target: T1, mGluR4; assay: GloSensor cAMP biosensor assay, mGluR4 PAM and agonist activity; format: cell-based; parameters: expressed in transfected cells; conditions: in presence of EC20 concentration of agonist (1 μM L-SOP); read-out: EC50, mGluR4 PAM activity
Procedure: Cell Culture. HEK-293 cells were maintained with complete Dulbecco's modified Eagle's medium (DMEM), which was composed of 10% fetal bovine serum (FBS), 2 mM L-glutamine, 100 units/mL penicillin G, 100 μg/mL streptomycin at 37° C. in the presence of 5% CO2. HEK-293 stable cell lines with tetracycline inducible expression of mGluR1, mGluR2, mGluR4, mGluR6 or mGluR8 were maintained with complete DMEM with Hygromycin B (100 μg/mL), Blasticidin (15 μg/mL) at 37° C. in the presence of 5% CO2.
cAMP assay. The Gi/o coupled receptors (mGluR2, mGluR3, mGluR4, mGluR6 and mGluR8) were tested using cAMP assay. Promega's split luciferase based GloSensor cAMP biosensor technology was used in determining Gi-GPCR mediated cAMP production in live cells. On the cells stably expressing mGluR2, mGluR3, mGluR4, mGluR6 or mGluR8, GloSensor cAMP DNA construct was transfected overnight. Cells were seeded into PLL coated 384-well white clear bottom cell culture plates with complete BME Buffer with Tetracycline (1 μg/mL) at a density of 20,000 cells for another 24 h. The cell medium was removed and then 20 μL of buffer was loaded. […] Luminescence was counted in a Trilux luminescence counter. Data were analyzed with Prizm 5.0 (GraphPad software).
Secondary assays—Dose-response assays. […] For each compound, the results from four replicates were averaged and then either EC50 or IC50 values were calculated by non-linear regression using the 4-parameter logistic equation. […]
In sum, the mGluR4 PAM activity was determined using Promega's split luciferase based GloSensor cAMP biosensor assay (refs. 41-42). mGluR4 is coupling to Gαi protein to inhibit adenylate cyclase, which converts ATP to cAMP, which plays an important role in many signal transduction pathways. […] The mGluR4 PAM activity of 15 was evaluated in presence of EC20 concentration of agonist (1 μM L-SOP) by measuring changes in intracellular cAMP concentration.

mGluR4 [3] = molecular target: T2, mGluR4 (Rattus norvegicus, UniProt P31423); assay: PET blocking studies of [18F]15 binding; format: in vivo, Sprague Dawley rats
T2 construct: from tissue; host or cells: brain of living male Sprague Dawley rats
T2 sequence (P31423 33-912): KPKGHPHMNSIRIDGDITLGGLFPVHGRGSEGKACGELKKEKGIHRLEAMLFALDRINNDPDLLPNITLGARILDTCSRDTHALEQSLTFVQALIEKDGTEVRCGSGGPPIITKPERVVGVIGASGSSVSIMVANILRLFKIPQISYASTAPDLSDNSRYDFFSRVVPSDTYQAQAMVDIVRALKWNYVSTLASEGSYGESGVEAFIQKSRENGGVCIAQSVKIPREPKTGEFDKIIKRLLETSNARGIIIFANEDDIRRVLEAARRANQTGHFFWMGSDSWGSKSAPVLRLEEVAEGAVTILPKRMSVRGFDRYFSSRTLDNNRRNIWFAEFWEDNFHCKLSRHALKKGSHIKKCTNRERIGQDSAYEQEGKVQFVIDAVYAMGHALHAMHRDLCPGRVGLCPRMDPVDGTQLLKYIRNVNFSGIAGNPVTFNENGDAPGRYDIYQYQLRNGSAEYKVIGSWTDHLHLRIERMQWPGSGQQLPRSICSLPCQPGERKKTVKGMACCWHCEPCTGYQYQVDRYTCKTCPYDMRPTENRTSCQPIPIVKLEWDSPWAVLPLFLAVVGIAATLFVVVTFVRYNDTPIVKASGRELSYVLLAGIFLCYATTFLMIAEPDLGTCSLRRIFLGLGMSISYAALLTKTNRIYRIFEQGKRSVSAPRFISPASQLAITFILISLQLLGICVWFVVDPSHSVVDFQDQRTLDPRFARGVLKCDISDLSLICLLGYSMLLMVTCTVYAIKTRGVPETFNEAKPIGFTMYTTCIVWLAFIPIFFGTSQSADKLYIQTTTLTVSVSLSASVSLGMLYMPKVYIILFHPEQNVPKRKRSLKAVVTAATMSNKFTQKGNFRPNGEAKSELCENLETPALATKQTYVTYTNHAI
Procedure: PET Imaging of [^18F]15 in Rats. Altogether 24 normal male Sprague Dawley rats were used for the imaging studies comprising 15 baseline studies and 15 blocking studies. Rats were anaesthetized with isoflurane/nitrous oxide (1.0-1.5% isoflurane, with oxygen flow of 1-1.5 L/min), and catheter was installed into tail vein for the administration of [^18F]15. Dynamic volumetric PET data was acquired with a PET-CT scanner for 60 min (Triumph-II, Tri-Foil Imaging, Northridge, Calif.). The vital signals such as heart rate and respiration rate were monitored during scanning period. PET data acquisition was started immediately after administration of radioactivity with the dose range of 18-34 MBq depending on the size of the rat followed by CT imaging to obtain anatomical information and data for attenuation correction of PET data. PET data was processed by using maximum-likelihood expectation-maximization (MLEM) algorithm with 30 iterations to dynamic volumetric images, and corrected for uniformity, scatter, and attenuation. The CT data was processed by the modified Feldkamp algorithm using matrix volumes of 512×512×512 and pixel size of […]. Co-registration of CT and PET images and analysis of PET images were carried out using PMOD3.2 software (PMOD Technology, Zurich, Switzerland).
For blocking studies, the same scanning protocols were used as for the baseline studies. For mGluR4 blocking experiments, 1, 2 or 3 mg/kg of 13 or 15 dissolved in a saline solution with 10% DMSO, 5% Tween-20 and 85% PBS was injected 1 min before iv administration of [^18F]15.

Structure (SMILES) | Plasma stability, remaining of the intact test compound (plasma stability; 0 min) | Plasma stability, remaining of the intact test compound (plasma stability; 15 min) | Plasma stability, remaining of the intact test compound (plasma stability; 30 min) | Plasma stability, remaining of the intact test compound (plasma stability; 60 min) | Plasma stability, remaining of the intact test compound (plasma stability; 120 min) | The plasma stability, The intact ± SEM at 120 min (%) (plasma stability; 120 min) | The microsome stability Clint (μL/min/mg protein) (microsomal stability) | The microsome stability t1/2 (microsomal stability) | The solution stability, The intact ± SEM at 120 min (%) (solution stability; pH = 5.0, 37° C.) | The solution stability, The intact ± SEM at 120 min (%) (solution stability; pH = 7.4, 37° C.) | The solution stability, The intact ± SEM at 120 min (%) (solution stability; pH = 9.4, 37° C.) | IC50 (mGluR4 [1]) | EC50 (mGluR4 [2]) | blocking effect on [18F]15 binding (mGluR4 [3]; 1 mg/kg, pre-administration) | blocking of [18F]15 binding in the whole brain (mGluR4 [3]; blocking agent injected 1 min before [18F]15) | blocking of [18F]15 binding in striatum (mGluR4 [3]; dose 1 mg/kg) | blocking of [18F]15 binding in striatum (mGluR4 [3]; dose 2 mg/kg) | blocking of [18F]15 binding in striatum (mGluR4 [3]; dose 3 mg/kg)
COc1cc(NC(=O)c2ccccn2)ccc1Cl [Compound 4] | 100.00 ± 4.65% | 94.45 ± 1.65% | 97.56 ± 11.8% | 100.35 ± 8.04% | 98.21 ± 6.32% | 98.2 ± 6.3% | 96.2 μL/min/mg protein | 14.41 min and 14.4 min | 92.7 ± 3.1% | 97.3 ± 1.1% | 89.1 ± 2.1% | 5.1 nM |  |  |  |  |  | 
c1ccc(Nc2nc3c(s2)CCCc2[nH]ncc2-3)nc1 [Compound 11] |  |  |  |  |  |  |  |  |  |  |  |  | 55 nM |  |  |  |  | 
CSc1cc(NC(=O)c2ccccn2)ccc1Cl [Compound 13] | 100.00 ± 0.21% | 95.34 ± 12.08% | 95.27 ± 7.76% | 93.62 ± 8.76% | 91.52 ± 2.49% | 91.5 ± 2.5% | 54.8 μL/min/mg protein | 25.30 min | 85.9 ± 0.8% | 87.9 ± 3.4% | 89.3 ± 1.3% | 3.4 nM |  | 25-30% | 22-25% | 18% | 20% | 28%
COc1ccc([C@@H]2Sc3ccccc3N(CCN(C)C)C(=O)[C@@H]2OC(C)=O)cc1 [Diltiazem] | 100.00 ± 8.98% | 87.33 ± 9.53% | 75.23 ± 4.03% | 58.91 ± 13.39% | 48.97 ± 10.63% | 49.0 ± 10.6% |  |  | 94.7 ± 1.4% | 99.0 ± 5.7% | 69.8 ± 2.6% |  |  |  |  |  |  | 
